Test results taken from BindingDB's records for PubMed 34355178 (n/a, 2021).

Molecular target: T1, Toll-like receptor 7 (Homo sapiens, UniProt Q9NYK1)
T1 sequence (Q9NYK1 whole entry): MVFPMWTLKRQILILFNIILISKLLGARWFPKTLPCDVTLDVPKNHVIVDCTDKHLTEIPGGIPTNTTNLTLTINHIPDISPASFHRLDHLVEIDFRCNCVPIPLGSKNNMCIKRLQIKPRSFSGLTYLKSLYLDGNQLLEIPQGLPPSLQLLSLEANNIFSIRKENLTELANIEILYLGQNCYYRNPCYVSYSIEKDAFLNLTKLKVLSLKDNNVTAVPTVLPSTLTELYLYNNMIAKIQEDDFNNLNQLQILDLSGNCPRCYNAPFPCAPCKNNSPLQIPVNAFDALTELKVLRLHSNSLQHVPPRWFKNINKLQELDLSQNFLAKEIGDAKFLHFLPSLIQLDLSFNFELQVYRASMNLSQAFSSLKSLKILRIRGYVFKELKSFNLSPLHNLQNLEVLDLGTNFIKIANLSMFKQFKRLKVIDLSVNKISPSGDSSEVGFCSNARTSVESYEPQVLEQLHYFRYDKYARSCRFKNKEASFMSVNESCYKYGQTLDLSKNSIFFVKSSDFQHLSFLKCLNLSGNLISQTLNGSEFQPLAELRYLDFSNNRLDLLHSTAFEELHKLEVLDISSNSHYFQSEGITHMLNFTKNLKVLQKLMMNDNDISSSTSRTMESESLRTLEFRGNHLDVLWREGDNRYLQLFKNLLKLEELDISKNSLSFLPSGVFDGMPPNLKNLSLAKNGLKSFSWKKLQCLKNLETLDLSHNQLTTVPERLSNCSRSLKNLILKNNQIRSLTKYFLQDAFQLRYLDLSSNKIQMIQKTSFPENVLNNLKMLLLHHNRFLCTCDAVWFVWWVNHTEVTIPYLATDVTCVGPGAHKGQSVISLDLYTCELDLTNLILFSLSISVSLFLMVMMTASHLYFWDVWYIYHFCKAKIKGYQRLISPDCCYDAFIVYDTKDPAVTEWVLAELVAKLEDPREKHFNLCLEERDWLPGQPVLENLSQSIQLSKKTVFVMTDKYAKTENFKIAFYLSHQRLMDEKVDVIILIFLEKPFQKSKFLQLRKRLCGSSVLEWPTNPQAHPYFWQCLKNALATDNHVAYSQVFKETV
Assay: Agonist activity at human TLR7 in HEK-Blue hTLR7 cells assessed as activation of NFkappaB by SEAP reporter gene based spectrophotometry assay

Work on `CCCc1nc2c(N)nc3ccc(N)cc3c2s1` yielded an EC50 of 8.19 µM.

`CC[C@H](C)c1nc2c(N)nc3ccccc3c2s1` was tested, and the EC50 was 8.11 µM.
